Test results reported in paper PMC3220932 (Pulmonary pharmacology & therapeutics, 2011).

Assays:
[1] = test system: human bronchial smooth muscle cells; assay type: cell-based; conditions: for IC50: read-out: IC50 for rapidly inhibiting formoterol uptake by human bronchial smooth muscle cells, 200 nmol/l [3H]-formoterol, mean, n = 6
OCT3 = molecular target: T1, OCT3 (Homo sapiens, UniProt O75751); conditions: bronchial smooth muscle cells, OCT3 targeted shRNA
T1 sequence (O75751 1-556): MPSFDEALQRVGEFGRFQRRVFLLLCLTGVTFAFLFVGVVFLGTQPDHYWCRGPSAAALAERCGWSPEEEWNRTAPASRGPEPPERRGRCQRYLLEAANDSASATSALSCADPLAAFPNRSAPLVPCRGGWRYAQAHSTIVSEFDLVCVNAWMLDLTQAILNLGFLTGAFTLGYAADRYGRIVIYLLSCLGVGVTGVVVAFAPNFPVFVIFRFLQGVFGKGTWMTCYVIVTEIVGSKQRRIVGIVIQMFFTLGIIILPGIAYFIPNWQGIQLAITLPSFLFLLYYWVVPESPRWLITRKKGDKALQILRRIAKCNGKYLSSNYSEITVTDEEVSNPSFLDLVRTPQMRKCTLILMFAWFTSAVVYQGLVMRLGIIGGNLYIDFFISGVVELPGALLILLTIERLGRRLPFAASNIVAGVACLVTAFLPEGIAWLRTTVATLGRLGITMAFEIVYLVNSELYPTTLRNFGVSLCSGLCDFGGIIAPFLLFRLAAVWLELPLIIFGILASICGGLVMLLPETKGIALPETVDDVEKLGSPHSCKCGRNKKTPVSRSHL

[2] = test system: human airway epithelial cells; test: Corticosteroid effect on tritiated drug uptake by airway epithelial cells; assay type: cell-based; conditions: 5 μmol/l
[3] = test system: human bronchial smooth muscle cells; test: Cellular drug uptake by bronchial smooth muscle cells; conditions: 37°C, 15 min; for cellular uptake in smooth muscle cells: 200 nmol/l [3H]-formoterol or [3H]-salmeterol
[4] = test system: human airway epithelial cells; test: Cellular drug uptake by airway epithelial cells; conditions: 37°C, 15 min; for cellular uptake in airway epithelial cells: 200 nmol/l [3H]-formoterol or [3H]-salmeterol

## CCC(=O)O[C@]1(C(=O)CO)[C@@H](C)C[C@H]2[C@@H]3CCC4=CC(=O)C=C[C@]4(C)[C@@]3(Cl)[C@@H](O)C[C@@]21C [Beclomethasone 17-monopropionate]
[1]; 15-min incubation
  IC50: 4.04 µM

## C[C@]12C[C@H](O)[C@H]3[C@@H](CCC4=CC(=O)CC[C@@]43C)[C@@H]1CC[C@@H]2C(=O)CO [Corticosterone]
OCT3
  inhibitory effect on formoterol uptake under OCT3 mRNA suppression: reduces
[1]; 5 μM, 100 μM actinomycin D added 60 min prior to transport measurements
  action on formoterol uptake in presence of transcription inhibitor actinomycin D: insensitive
[1]; 5 μmol/l, 15-min incubation
  effect on MPP+ uptake by bronchial smooth muscle cells: significantly reduced
[1]; 5 μmol/l, 15 min
  effect on salmeterol uptake in bronchial smooth muscle cells: insensitive to corticosterone
[1]; 5 μmol/l, bronchial smooth muscle cells
  inhibitory action on formoterol uptake after pretreatment for 45 or 90 min: not enhanced
[2]; 15-min incubation
  effect on MPP+ uptake by airway epithelial cells: but not airway epithelial cells
[2]; 15 min
  effect on salmeterol uptake in epithelial cells: insensitive to corticosterone
  rapid inhibitory effect on formoterol uptake in epithelial cells: not in epithelial cells

## CCC(=O)O[C@]1(C(=O)SCF)[C@H](C)C[C@H]2[C@@H]3C[C@H](F)C4=CC(=O)C=C[C@]4(C)[C@@]3(F)[C@@H](O)C[C@@]21C [Fluticasone propionate]
[1]; 15-min incubation
  IC50: 6.29 µM

## C[n+]1ccc(-c2ccccc2)cc1 [MPP^+, N-methyl-4-phenylpyridinium]
[3]; 5 nmol/l [3H]-MPP+
  cellular uptake of MPP+ in smooth muscle cells: 0.21 ± 0.02 pmol/mg protein/15 min
[4]; 5 nmol/l [3H]-MPP+
  cellular uptake of MPP+ in epithelial cells: 0.18 ± 0.03 pmol/mg protein/15 min

## COc1ccc(CC(C)NCC(O)c2ccc(O)c(NC=O)c2)cc1 (stereo not shown) [formoterol]
[3]
  cellular uptake in smooth muscle cells: 28.1 ± 1.6 pmol/mg protein/15 min
[4]
  cellular uptake in airway epithelial cells: 8.9 ± 0.5 pmol/mg protein/15 min

## OCc1cc(C(O)CNCCCCCCOCCCCc2ccccc2)ccc1O (stereo not shown) [salmeterol]
[3]
  cellular uptake in smooth muscle cells: 306.9 ± 13.3 pmol/mg protein/15 min
[4]
  cellular uptake in airway epithelial cells: 46.6 ± 1.9 pmol/mg protein/15 min
